In patent US20140336182A1, “Aurora Kinase Modulators and Method of Use” (Amgen Inc., priority 2013, published 2014):
Read-outs that look alike come from different tables or passages of the source.

Tested on: HeLa cells
Assay: HeLa cell 24 hr ploidy assay (DNA content)
Format: cell-based
Conditions: Homo sapiens, HeLa, 4N ploidy, average, read-out: 24h_4NPloidy EC50_IP (uM Avg)
Method in brief: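 DNA content measured by Hoechst 33342 nuclear staining (0.5 ug/ml, 45 min RT) and high-content imaging of fixed HeLa cells after 24 h compound exposure in 0.25% DMSO. Fractions of 4N and >4N cells fitted to dose curves giving EC50 IP, EC50 transit, Max and Min.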

Structure (SMILES) | EC50 | EC50 (HeLa cells)
COc1cnc2c(Oc3ccc(Nc4nnc(-c5ccc(OC(C)C)cc5)c5ccccc45)cc3)ccnc2c1 [compound 137] | 0.85 µM | 
COc1cnc2c(Oc3ccc(Nc4nnc(-c5ccc(Cl)s5)c5ccccc45)cc3)ccnc2c1 [compound 140, 4-(5-chloro-2-thienyl)-N-(4-((7-(methyloxy)-1,5-naphthyridin-4-yl)oxy)phenyl)-1-phthalazinamine] | 0.022 µM | 
COc1ccc(-c2nnc(Nc3ccc(Oc4ccnc5cc(C#N)ccc45)cc3)c3ccccc23)cc1 [compound 141, 4-((4-((4-(4-(methyloxy)phenyl)-1-phthalazinyl)amino)phenyl)oxy)-7-quinolinecarbonitrile] | 0.025 µM | 
COc1cnc2c(Oc3ccc(Nc4nnc(-c5cc6ccccc6n5C)c5ccccc45)cc3)ccnc2c1 [compound 143, 4-(1-methyl-1H-indol-2-yl)-N-(4-((7-(methyloxy)-1,5-naphthyridin-4-yl)oxy)phenyl)-1-phthalazinamine] | 0.094 µM | 
COc1cnc2c(Oc3ccc(Nc4ncc(-c5ccccc5)c5ccccc45)cc3)ccnc2c1 [compound 144] | 0.155 µM | 
COc1cc2nccc(Oc3ccc(Nc4ncc(-c5ccccc5)c5ccccc45)cc3)c2cn1 [compound 145] | > 1.2 µM | 
COc1cnc2c(Oc3ccc(Nc4nnc(-c5ccc(C(F)(F)F)cc5)c5ccccc45)cc3)ccnc2c1 [compound 146, N-(4-((7-(methyloxy)-1,5-naphthyridin-4-yl)oxy)phenyl)-4-(4-(trifluoromethyl)phenyl)-1-phthalazinamine] | 0.057 µM | 
N#Cc1ccc2c(Oc3ccc(Nc4nnc(-c5ccc(C(F)(F)F)cc5)c5ccccc45)cc3)ccnc2c1 [compound 147, 4-((4-((4-(4-(trifluoromethyl)phenyl)-1-phthalazinyl)amino)phenyl)oxy)-7-quinolinecarbonitrile] | 0.02 µM | 
CCc1cc(-c2ccccc2)nnc1Nc1ccc(Oc2ncnc3cc(OC)c(OC)cc23)cc1 [compound 148] | 0.039 µM | 
CCc1cc(-c2ccccc2)nnc1Nc1ccc(Oc2ccnc3cc(C#N)ccc23)cc1 [compound 149] | 0.42 µM | 
COc1cc2nccc(Oc3ccc(Nc4nnc(-c5cccc(C)n5)c5ccccc45)cc3)c2cc1OC [compound 150] | 0.017 µM | 
COc1cnc2c(Oc3ccc(Nc4nnc(N5CCCCC5)c5ccccc45)cc3)ccnc2c1 [compound 151] | 0.128 µM | 
COc1cnc2c(Oc3ccc(Nc4nnc(-c5cc(C)cs5)c5ccccc45)cc3)ccnc2c1 [compound 152] | 0.009 µM | 
COc1cc2ncnc(Oc3ccc(Nc4nnc(-c5cc(C)cs5)c5ccccc45)cc3)c2cc1OC [compound 153] | 0.001 µM | 
COc1cnc2c(Oc3ccc(Nc4nnc(-c5ccc(C(C)C)cc5)c5ccccc45)cc3)ccnc2c1 [compound 155] | 0.068 µM | 
CCCc1cc(-c2ccccc2)nnc1Nc1ccc(Oc2ccnc3cc(OC)cnc23)cc1 [compound 156] | 0.061 µM | 
Cc1ccc(-c2nnc(Nc3ccc(Oc4ccnc5ccccc45)c(F)c3)c3ccccc23)cc1 [compound 161] | 0.01 µM | 
Cc1ccc(-c2nnc(Nc3ccc(Oc4ccnc5cc(C#N)ccc45)cc3)c3ccccc23)s1 [compound 162] | 0.004 µM | 
COc1cnc2c(Oc3ccc(Nc4nnc(-c5ccc(OC(F)(F)F)cc5)c5ccccc45)cc3)ccnc2c1 [compound 163] | > 1.2 µM | 
COc1ccc2c(Oc3ccc(Nc4nnc(-c5ccccc5)c5ccccc45)cc3)c(F)cnc2c1 [compound 164] |  | 0.076 µM
COc1cnc2c(Oc3ccc(Nc4nnc(-c5csc6ccccc56)c5ccccc45)cc3)ccnc2c1 [compound 169] |  | 0.027 µM
Cc1csc(-c2nnc(Nc3ccc(Oc4ccnc5cc(C#N)ccc45)cc3)c3ccccc23)c1 [compound 170] |  | 0.007 µM

Structure (SMILES) | EC50 | EC50 (HeLa cells)
COc1cnc2c(Oc3ccc(Nc4nnc(-c5cc6ccccc6s5)c5ccccc45)cc3)ccnc2c1 [compound 171] |  | 0.004 µM
COc1cnc2c(Oc3ccc(Nc4nnc(N5CC[C@H]6CCCC[C@H]6C5)c5ccccc45)cc3)ccnc2c1 [compound 173] |  | 0.006 µM
N#Cc1ccc2c(Oc3ccc(Nc4nnc(-c5ccccc5)c5ccccc45)cn3)ccnc2c1 [compound 174] |  | ≥ 1.2 µM
CCOc1nc(-c2nnc(Nc3ccc(Oc4ccnc5cc(OC)cnc45)cc3)c3ccccc23)cs1 [compound 175] |  | 0.059 µM
COc1cnc2c(Oc3ccc(Nc4nnc(-c5cc6ccccc6o5)c5ccccc45)cc3)ccnc2c1 [compound 176] |  | 0.008 µM
COc1cnc2c(Oc3ccc(Nc4nnc(-c5ccc(C(N)=O)cc5)c5ccccc45)cc3)ccnc2c1 [compound 177] |  | > 1.2 µM
COc1cnc2c(Oc3ccc(Nc4nnc(-c5ccc(C)nc5F)c5ccccc45)cc3)ccnc2c1 [compound 178] |  | 0.027 µM
O=C(Nc1cc(Oc2ccc(Nc3nnc(-c4ccccc4)c4ccccc34)cc2F)ccn1)N1CCOCC1 [compound 179] |  | 0.226 µM
COc1cnc2c(Oc3ccc(Nc4nnc(-c5cnc6ccccc6c5)c5ccccc45)cc3)ccnc2c1 [compound 182] |  | 0.032 µM
COc1cnc2c(Oc3ccc(Nc4nnc(-c5cccc6[nH]ccc56)c5ccccc45)cc3)ccnc2c1 [compound 183] |  | 0.052 µM
Cc1ccsc1-c1nnc(Nc2ccc(Oc3ccnc4cc(C#N)ccc34)cc2)c2ccccc12 [compound 184] |  | 0.13 µM
COc1cnc2c(Oc3ccc(Nc4nnc(-c5sccc5C)c5ccccc45)cc3)ccnc2c1 [compound 185] |  | 0.241 µM
COc1cccc(-c2nnc(Nc3ccc(Oc4ccnc5ccccc45)c(F)c3)c3ccccc23)n1 [compound 186] |  | 0.031 µM
COc1cnc2c(Oc3ccc(Nc4nnc(-c5ccc(C)cc5)c5ccccc45)cc3F)ccnc2c1 [compound 187] |  | 0.006 µM
COc1cnc2c(Oc3ccc(Nc4nnc(-c5cc(C)cc(C)c5)c5ccccc45)cc3)ccnc2c1 [compound 188] |  | 0.051 µM
COc1cnc2c(Oc3ccc(Nc4nnc(-c5ncc(C)s5)c5ccccc45)cc3)ccnc2c1 [compound 189] |  | 0.191 µM
COc1cnc2c(Oc3ccc(Nc4nnc(-c5cccnc5F)c5ccccc45)cc3)ccnc2c1 [compound 191] |  | > 1.2 µM
CCCc1cc(-c2ccccc2)nnc1Nc1ccc(Oc2ccnc3cc(C#N)ccc23)cc1 [compound 196] |  | 0.342 µM
COc1cnc2c(Oc3ccc(Nc4nnc(-c5cccc(N6CCCCC6)c5)c5ccccc45)cc3)ccnc2c1 [compound 197] |  | 0.021 µM
COc1cnc2c(Oc3ccc(Nc4nnc(-c5ccc(N6CCCCC6)cc5)c5ccccc45)cc3)ccnc2c1 [compound 198] |  | 0.399 µM
CCc1cc(-c2ccc(C)cc2)nnc1Nc1ccc(Oc2ccnc3cc(OC)cnc23)cc1 [compound 199] |  | 0.018 µM

Results, then the compound that gave them:

EC50 | EC50 (HeLa cells) | Structure (SMILES)
0.03 µM |  | COc1cnc2c(Oc3ccc(Nc4nnc(-c5ccc(C)s5)c5ccccc45)cc3)ccnc2c1 [compound 138]
0.057 µM |  | COc1cccc(-c2nnc(Nc3ccc(Oc4ccnc5cc(OC)cnc45)cc3)c3ccccc23)c1 [compound 139]
0.007 µM |  | COc1cnc2c(Oc3ccc(Nc4nnc(-c5ccc6sccc6c5)c5ccccc45)cc3)ccnc2c1 [compound 142]
0.061 µM |  | COc1cnc2c(Oc3ccc(Nc4nnc(-c5ccc(Cl)c(C#N)c5)c5ccccc45)cc3)ccnc2c1 [compound 154]
0.028 µM |  | COc1cnc2c(Oc3ccc(Nc4nnc(-c5ccc6c(c5)OCCN6C)c5ccccc45)cc3)ccnc2c1 [compound 157]
0.075 µM |  | COc1cnc2c(Oc3ccc(Nc4nnc(-c5ccc(OC)nc5)c5ccccc45)cc3)ccnc2c1 [compound 158]
0.007 µM |  | COc1cnc2c(Oc3ccc(Nc4nnc(-c5ccc6occc6c5)c5ccccc45)cc3)ccnc2c1 [compound 159]
 | 0.087 µM | COc1cnc2c(Oc3ccc(Nc4nnc(-c5ccc6c(c5)OCCO6)c5ccccc45)cc3)ccnc2c1 [compound 166]
 | 0.027 µM | COc1cnc2c(Oc3ccc(Nc4nnc(-c5ccc6[nH]ccc6c5)c5ccccc45)cc3)ccnc2c1 [compound 167]
 | 0.007 µM | COc1cnc2c(Oc3ccc(Nc4nnc(-c5ccc6c(c5)CCO6)c5ccccc45)cc3)ccnc2c1 [compound 168, 4-(2,3-dihydro-1-benzofuran-5-yl)-N-(4-((7-(methyloxy)-1,5-naphthyridin-4-yl)oxy)phenyl)-1-phthalazinamine]
 | 0.034 µM | COc1cnc2c(Oc3ccc(Nc4nnc(-c5ccc(C(F)(F)F)c(Cl)c5)c5ccccc45)cc3)ccnc2c1 [compound 172, 4-(3-chloro-4-(trifluoromethyl)phenyl)-N-(4-((7-(methyloxy)-1,5-naphthyridin-4-yl)oxy)phenyl)-1-phthalazinamine]
 | 0.025 µM | COc1cnc2c(Oc3ccc(Nc4nnc(-c5ccc(F)c(OC)c5)c5ccccc45)cc3)ccnc2c1 [compound 180]
 | 0.104 µM | COc1cnc2c(Oc3ccc(Nc4nnc(-c5ccc(C#N)cc5)c5ccccc45)cc3)ccnc2c1 [compound 181]
 | 0.129 µM | COc1cnc2c(Oc3ccc(Nc4nnc(-c5ccc(F)nc5)c5ccccc45)cc3)ccnc2c1 [compound 190, 4-(6-fluoro-3-pyridinyl)-N-(4-((7-(methyloxy)-1,5-naphthyridin-4-yl)oxy)phenyl)-1-phthalazinamine]
 | 0.005 µM | COc1cnc2c(Oc3ccc(Nc4nnc(-c5ccc(C)c(C)c5)c5ccccc45)cc3)ccnc2c1 [compound 192]
 | 0.027 µM | COc1cnc2c(Oc3ccc(Nc4nnc(-c5ccc(F)c(Cl)c5)c5ccccc45)cc3)ccnc2c1 [compound 193, 4-(3-chloro-4-fluorophenyl)-N-(4-((7-(methyloxy)-1,5-naphthyridin-4-yl)oxy)phenyl)-1-phthalazinamine]
 | 0.033 µM | COc1cnc2c(Oc3ccc(Nc4nnc(-c5ccc(N(C)C)cc5)c5ccccc45)cc3)ccnc2c1 [compound 194]
 | 0.197 µM | COc1cnc2c(Oc3ccc(Nc4nnc(-c5ccc6sc(C)nc6c5)c5ccccc45)cc3)ccnc2c1 [compound 195, 4-(2-methyl-1,3-benzothiazol-5-yl)-N-(4-((7-(methyloxy)-1,5-naphthyridin-4-yl)oxy)phenyl)-1-phthalazinamine]
